Measurements from publication PMC10714400, “Antimicrobial Peptide–Peptoid Hybrids with and without Membrane Disruption” (ACS Infectious Diseases, 2023).
Converted amounts (≈) assume the structure as drawn. Where a SMILES comes first, the peptide text is derived from it. [ ]: non-standard residue; d: D form. Nleu = CC(C)CNCC(=O)O; Nlys = NCCCCNCC(=O)O

What was measured:
A. baumannii ATCC19606 = system: A. baumannii ATCC19606
Experimental: (§1) Antimicrobial activity was assayed for all the peptide–peptoids against P. aeruginosa PAO1, K. pneumoniae NCTC418, E. coli W3110, A. baumannii ATCC 19606, methicillin-resistant S. aureus COL (MRSA), and for selected peptides on P. aeruginosa PA14 and the polymyxin-B-resistant derivatives PA14 4.13, PA14 4.18, PA14 2P4, as well as the clinical isolates ZEM-1A and ZEM9A, K. pneumoniae OXA-48, S. aureus Newman, Enterobacter cloacae, Stenotrophomonas maltophilia, Burkholderia cenocepacia, and Staphylococus epidermidis. To determine the Minimal Inhibitory Concentration (MIC), the Broth Microdilution method was used.[72] A colony of bacteria was picked and grown in LB medium overnight at 37 °C.
(§2) To each well was finally added 4 μL of the diluted bacterial suspension (see above), corresponding to approximately 5 × 10^5 CFU. For each test, two columns of the plate were kept for sterility control (medium only), growth control (medium with bacterial inoculum, no compound). The positive control, Polymyxin B (starting with a concentration of 16 μg/mL) in MH medium with bacterial inocula, was introduced in the two lines of the plate. The plates were incubated at 37 °C for ca. 18 h under static conditions. Next, 15 μL of 3-(4,5-dimethylthiazol-2-yl)-2,5-diphenyltetrazolium bromide (MTT)[73] (1 mg/mL in sterilized MilliQ deionized water) were added to each well, and the plates were incubated for 20–30 min at room temperature. The minimal inhibitory concentration (MIC) was defined as the lowest concentration of the compound that inhibits the visible growth of the tested bacteria (yellow) with the unaided eye.

E. coli W3110 = system: E. coli W3110
Experimental: as §1, §2

K. pneumoniae NCTC418 = system: K. pneumoniae NCTC418
Experimental: as §1, §2

P. aeruginosa PAO1 = system: P. aeruginosa PAO1
Experimental: as §1, §2

PA14 2P4 (pmrB) = settings: CSV; […] MH at pH 8.5
Experimental: as §1, §2

PA14 4.13 (phoQ) = settings: CSV; […] MH at pH 8.5
Experimental: as §1, §2

PA14 4.18 (pmrB) = settings: […] MH at pH 8.5
Experimental: as §1, §2

S. aureus COL (MRSA) = system: S. aureus COL (MRSA)
Experimental: as §1, §2

[1] = system: human red blood cells (hRBC); assay: Minimum hemolytic concentration (MHC); assay type: cell-based
Text: We also measured minimal hemolysis concentrations (MHC) on human red blood cells by serial 2-fold dilution as an indication of toxicity against eukaryotic cells (Table 1).

[2] = Circular dichroism, α-helical content; assay type: physicochemical; settings: 0.1 mg/mL; for CD %α with 5 mM DPC: 10 mM phosphate buffer pH 7.4, 5 mM DPC; for CD %α with 20% TFE: 10 mM phosphate buffer pH 7.4, 20% TFE
P. aeruginosa PA14 = settings: PA14, pH 8.5
Experimental: as §1
as §2, with “The plates were incubated at 37 °C for ca. 18 h under static conditions.” left out

S. aureus Newman = settings: Newman, 4 h, pH 8.5
Experimental: as §1
as §2, with “The plates were incubated at 37 °C for ca. 18 h under static conditions.” left out

HEK293 cells = assay: Cell viability assay by Alamar blue; settings: read-out: Toxicity on HEK293 cells; CSV
Experimental: The data are represented as the mean value ± SD, n = 3. […] (c) Vesicle leakage assay for a selection of compounds. Lipid vesicles made of EYPG or EYPC were suspended in a buffer (10 mM TRIS, 107 mM NaCl, pH 7.4). After 45 s, the indicated compound was added to reach the desired concentration. After 240 s, 30 μL of 1.2% TritonX-100 was added for full fluorescein release. […] See Supporting Information for the full curves, all of the data, and procedures.
HEK293 cells were cultured and maintained in DMEM high glucose (Dulbecco’s modified Eagle medium, Sigma Aldrich) medium supplemented with 10% FBS (Sigma Aldrich) and 1% penicillin/streptomycin. A549 cells were cultured and maintained in RPMI-1640 medium (Sigma Aldrich), supplemented with 10% FBS (Sigma Aldrich) and 1% penicillin/streptomycin. The cells were handled and subcultured according to the manufacturer instructions. Cells were incubated in a humidified incubator at 37 °C in the presence of 5% CO2.
Assays on HEK293, A549 cells were performed as described earlier.[74] […]

## CC(C)C[C@H](NC(=O)CN(CCCCN)C(=O)[C@H](CC(C)C)NC(=O)[C@H](CC(C)C)NC(=O)[C@H](CCCCN)NC(=O)[C@H](CC(C)C)NC(=O)[C@H](CC(C)C)NC(=O)[C@H](CCCCN)NC(=O)CNCCCCN)C(=O)N[C@@H](CC(C)C)C(=O)N(CC(N)=O)CC(C)C [EB2, kKLLKLLkLLl] (H-[Nlys]KLLKLL[Nlys]LL[Nleu]-NH2)
A. baumannii ATCC19606; ATCC19606, 4 h, pH 7.4
  MIC A. baumannii ATCC19606, full MH at pH 7.4: >32 ug/mL
A. baumannii ATCC19606; Table S2, […] MH, pH 7.4
  MIC A. baumannii ATCC19606 […] 7.4: 16 µg/mL (≈ 12.1 µM)
A. baumannii ATCC19606; Table S2, […] MH, pH 8.5
  MIC A. baumannii ATCC19606 […] 8.5: 8 µg/mL (≈ 6.05 µM)
A. baumannii ATCC19606; Table S2, full MH, pH 7.4
  MIC A. baumannii ATCC19606 Full MH 7.4: > 32 µg/mL
A. baumannii ATCC19606; Table S2, full MH, pH 8.5
  MIC A. baumannii ATCC19606 Full MH 8.5: 32 µg/mL (≈ 24.2 µM)
E. coli W3110; CSV, […] MH at pH 7.4
  MIC E. coli W3110, […] MH at pH 7.4: 4 ug/mL
E. coli W3110; CSV, full MH at pH 7.4
  MIC E. coli W3110, full MH at pH 7.4: 32 ug/mL
E. coli W3110; CSV, full MH at pH 8.5
  MIC E. coli W3110, full MH at pH 8.5: 32 ug/mL
E. coli W3110; Table S2, […] MH, pH 7.4
  MIC E. coli W3110 […] 7.4: 4 µg/mL (≈ 3.03 µM)
E. coli W3110; Table S2, […] MH, pH 8.5
  MIC E. coli W3110 […] 8.5: 2 µg/mL (≈ 1.51 µM)
E. coli W3110; Table S2, full MH, pH 7.4
  MIC E. coli W3110 Full MH 7.4: 32 µg/mL (≈ 24.2 µM)
E. coli W3110; Table S2, full MH, pH 8.5
  MIC E. coli W3110 Full MH 8.5: 32 µg/mL (≈ 24.2 µM)
K. pneumoniae NCTC418; NCTC418, 4 h, pH 7.4
  MIC K. pneumoniae NCTC418, full MH at pH 7.4: >32 ug/mL
K. pneumoniae NCTC418; NCTC418, 4 h, pH 8.5
  MIC K. pneumoniae NCTC418, full MH at pH 8.5: >32 ug/mL
K. pneumoniae NCTC418; Table S2, […] MH, pH 7.4
  MIC K. pneumoniae NCTC418 […] 7.4: > 32 µg/mL
K. pneumoniae NCTC418; Table S2, […] MH, pH 8.5
  MIC K. pneumoniae NCTC418 […] 8.5: > 32 µg/mL
K. pneumoniae NCTC418; Table S2, full MH, pH 7.4
  MIC K. pneumoniae NCTC418 Full MH 7.4: > 32 µg/mL
K. pneumoniae NCTC418; Table S2, full MH, pH 8.5
  MIC K. pneumoniae NCTC418 Full MH 8.5: > 32 µg/mL
P. aeruginosa PAO1; PAO1, 4 h, pH 7.4
  MIC P. aeruginosa PAO1, full MH at pH 7.4: 32 ug/mL
P. aeruginosa PAO1; PAO1, 4 h, pH 8.5
  MIC P. aeruginosa PAO1, full MH at pH 8.5: 16 ug/mL
P. aeruginosa PAO1; Table S2, […] MH, pH 7.4
  MIC P. aeruginosa PAO1 […] 7.4: 16 µg/mL (≈ 12.1 µM)
P. aeruginosa PAO1; Table S2, […] MH, pH 8.5
  MIC P. aeruginosa PAO1 […] 8.5: 8 µg/mL (≈ 6.05 µM)
P. aeruginosa PAO1; Table S2, full MH, pH 7.4
  MIC P. aeruginosa PAO1 Full MH 7.4: 32 µg/mL (≈ 24.2 µM)
P. aeruginosa PAO1; Table S2, full MH, pH 8.5
  MIC P. aeruginosa PAO1 Full MH 8.5: 16 µg/mL (≈ 12.1 µM)
PA14 2P4 (pmrB)
  MIC P. aeruginosa PA14 2P4, […] MH at pH 8.5: 8 ug/mL
PA14 4.13 (phoQ)
  MIC P. aeruginosa PA14 4.13, […] MH at pH 8.5: 4 ug/mL
PA14 4.18 (pmrB); CSV
  MIC P. aeruginosa PA14 4.18, […] MH at pH 8.5: 6 ug/mL
PA14 4.18 (pmrB); Table S3
  MIC P. aeruginosa PA14 4.18: 4 to 8 µg/mL
S. aureus COL (MRSA); COL, 4 h, pH 7.4
  MIC S. aureus COL (MRSA), full MH at pH 7.4: >32 ug/mL
S. aureus COL (MRSA); COL, 4 h, pH 8.5
  MIC S. aureus COL (MRSA), full MH at pH 8.5: 32 ug/mL
S. aureus COL (MRSA); Table S2, […] MH, pH 7.4
  MIC S. aureus COL (MRSA) […] 7.4: 32 µg/mL (≈ 24.2 µM)
S. aureus COL (MRSA); Table S2, […] MH, pH 8.5
  MIC S. aureus COL (MRSA) […] 8.5: 2 µg/mL (≈ 1.51 µM)
S. aureus COL (MRSA); Table S2, full MH, pH 7.4
  MIC S. aureus COL (MRSA) Full MH 7.4: > 32 µg/mL
S. aureus COL (MRSA); Table S2, full MH, pH 8.5
  MIC S. aureus COL (MRSA) Full MH 8.5: 32 µg/mL (≈ 24.2 µM)
[1]
  Hemolysis: none of them showed any measurable hemolysis
  MHC: >2000 µg/mL
[2]; DichroWeb, Contin-LL
  CD %α with 5 mM DPC: 11%
  CD %α with 20% TFE: 15%
[2]; Table S2
  CD %α with 5 mM DPC: 11%
  CD %α with 20% TFE: 15%
P. aeruginosa PA14
  MIC P. aeruginosa PA14: 2 to 4 µg/mL
S. aureus Newman
  MIC S. aureus Newman: 2 to 4 µg/mL
HEK293 cells
  IC50: > 200 µM
